This note sets out measurements from the OPERA property sets (Mansouri et al. 2018).

Conditions in the first data set: not given
For `CCCCC(CC)COC(=O)CCCCC(=O)OCC(CC)CCCC` (configuration not stated), the boiling point (commonly the temperature of boiling at a given pressure) is 417 °C, the log10 Henry constant (atm·m³/mol) is -6.36, the log10 Koc (L/kg) amounted to 4.19 and the log10 vapour pressure (mmHg) was -6.07. In addition, the melting point (as a rule, the temperature, or range, at which the solid turns liquid) was -67.8 °C and the ready biodegradability result is listed as “readily biodegradable”.

As to `Clc1cccc(-c2cc(Cl)cc(Cl)c2)c1`, the log10 Henry constant (atm·m³/mol) was -3.77. Compound `CCOC(=O)c1ccc(N)cc1` returned a boiling point of 310 °C and a melting point of 92 °C.

On to `c1cc2c3c(ccc4c3c1CCC4)CCC2`, for which the melting point came out at 133 °C. Consider `CCC(C)(C)c1ccc(O)cc1`, for which the boiling point came out at 262 °C, the log10 vapour pressure (mmHg) is -2.7 and the melting point came out at 95 °C.

`Cc1ccnc(N)c1` came in with a melting point of 100 °C. `CCCCCCCCCCCCCCCCCCCCCCCCCCCCCCCCCC`: the boiling point was 483 °C, the log10 biodegradation half-life (days) was 2.58, the melting point came to 72.6 °C and the ready biodegradability result is “readily biodegradable”. In the case of `CCC1c2ccccc2-c2ccccc21`, the log10 biodegradation half-life (days) is 1.46. With `CC(=O)NO`, the melting point was 90.5 °C.

Take `CCC(Br)Br`: the boiling point is 134 °C. As for `CC(CC=O)CC(C)(C)C` (configuration not stated), the boiling point was determined as 173 °C, the log10 vapour pressure (mmHg) is -1.1 and the ready biodegradability entry is reported as “not readily biodegradable”. In the case of `CCOC(=O)C1OC1(C)c1ccccc1` (configuration not stated), the boiling point stood at 274 °C. As to `N#CCCCCC#N`, the boiling point worked out at 295 °C, the log10 vapour pressure (mmHg) is -3.17, the melting point was determined as 1 °C and the ready biodegradability entry was “readily biodegradable”. Regarding `CCOC(=O)Nc1ccc(NCc2ccc(F)cc2)nc1N`, the melting point stood at 116 °C. Take `CC(=O)NC1C(O)OC(CO)C(O)C1O` (configuration not stated): the ready biodegradability result is given as “readily biodegradable”. On to `Br.CCNCC`, for which the melting point was found to be 219 °C. Same read-out and setting: under `Clc1cccc2cccc(Cl)c12` stands 89 °C. The compound `CCc1cc(C)nc(C)c1` gave a boiling point of 188 °C and a melting point of 97 °C. Turning to `Clc1ccc(C/C(=C\CN2CCCC2)c2ccccc2)cc1`, the melting point was determined as 48.5 °C. `ClC1=C(Cl)C2(Cl)C3C(Cl)C=CC3C1(Cl)C2(Cl)Cl` (configuration not stated) returned a boiling point of 310 °C, a log10 Henry constant (atm·m³/mol) of -3.53, a log10 Koa of 7.64 and a log10 Koc (L/kg) of 4.38. Also, the log10 vapour pressure (mmHg) was -3.4, the melting point stood at 95.5 °C and the ready biodegradability result is recorded as “not readily biodegradable”. Compound `Nc1ccc2c(n1)[nH]c1ccccc12` had a melting point of 202 °C.

`C#CCC1(OC(N)=O)CCCCC1` came in with a melting point of 99 °C. As for `Cc1cccc(C#N)c1`, the boiling point is 213 °C and the melting point was -23 °C. Regarding `O=[N+]([O-])c1cc(S(=O)(=O)c2ccc(F)c([N+](=O)[O-])c2)ccc1F`, the melting point turned out to be 194 °C. In turn, `C=COCCC` came in with a boiling point of 65 °C. Regarding `CCCC(C)(O)CCC`, the boiling point is 161 °C and the melting point is -82 °C. Compound `O=Cc1cccc([N+](=O)[O-])c1` came in with a log10 vapour pressure (mmHg) of -2.14 and a melting point of 58.5 °C.

In the case of `CC[C@@H](CO)NCCN[C@@H](CC)CO`, the melting point is 89 °C. Turning to `Clc1ccccc1Oc1ccccc1`, the log10 vapour pressure (mmHg) is -2.4. In turn, `O=Cc1cccc2c1CCOC2=O` returned a melting point of 140 °C.

With `CC[C@H](O)C(C)C`, the boiling point was determined as 126 °C. On to `FC1(F)C(F)(F)C(F)(Cl)C1(F)Cl` (configuration not stated), for which the boiling point is 59.5 °C, the log10 vapour pressure (mmHg) came to 2.36 and the melting point is -24.2 °C.

`CNC(=O)C(C)(C(C)C)C(C)C` yielded a melting point of 60 °C.

In the case of `O=Cc1ccc2c(c1)OCO2`, the boiling point was 263 °C, the log10 vapour pressure (mmHg) is -2, the melting point is 37 °C and the ready biodegradability entry is recorded as “readily biodegradable”. Consider `NC(=O)c1ccccc1C(N)=O`, for which the melting point worked out at 222 °C. Take `NC(=O)N=NC(N)=O`: the log10 vapour pressure (mmHg) was -9.73 and the ready biodegradability result is listed as “not readily biodegradable”. Turning to `N#CNC(=N)N`, the melting point is 211 °C and the ready biodegradability result is “not readily biodegradable”.

For the compound `O=C(CCl)N1CCOCC1`, the melting point was determined as 37 °C. The same measure, in the same setting: with `NC(=O)c1ccccc1F` the figure was 118 °C. Take `CC(C)(C)S`: the boiling point was found to be 64 °C, the log10 vapour pressure (mmHg) stood at 2.26 and the melting point was -0.5 °C.

Consider `O=C(O)c1cc2ccccc2[nH]1`, for which the melting point was 206 °C. On the same count and under the same terms, under `CCCCCCCCCCCC[N+](C)(C)CCOc1ccccc1.[Br-]` stands 112 °C.

Regarding `COc1ccc(NC(C)=O)cc1Cl`, the log10 Koc (L/kg) stood at 1.95.

Compound `C=C(Cl)CCl` gave a boiling point of 94 °C and a log10 vapour pressure (mmHg) of 1.79.

Compound `Cn1c(=O)c2c(ncn2CCO)n(C)c1=O` registered a melting point of 158 °C.

The data set is the same for the next values; noted with them: fish.
As to `OC(c1ccc(Cl)cc1)(c1cncnc1)c1ccccc1Cl` (configuration not stated), the log10 biotransformation half-life (days) was determined as 0.57. `c1cc2c3c(ccc4c3c1CCC4)CCC2` yielded a log10 biotransformation half-life (days) of 0.42. Consider `Clc1cccc2cccc(Cl)c12`, for which the log10 BCF stood at 3.79. Compound `ClC1=C(Cl)C2(Cl)C3C(Cl)C=CC3C1(Cl)C2(Cl)Cl` (configuration not stated) yielded a log10 BCF of 3.94 and a log10 biotransformation half-life (days) of 1.45. Turning to `N#CNC(=N)N`, the log10 BCF amounted to 0.49.
